Data set [1] can be described thus: Penetration through human nails (nail adapter, wetted cotton bud receptor, RP-HPLC). The data set is classed as in vitro ADME. As for the experimental part:
Penetration of NaD1 through human nails was measured according to the method of Hui et al. (2002) J Pharm Sci 91(1):189-195. Human toenails were obtained from ScienceCare (USA) and washed with phosphate buffered saline (details, PBS) before being placed on a kimwipe that had been soaked in PBS for 3 h to rehydrate the nail. […]
The cotton bud in contact with the underside of the nail was removed after 24 h and every 24 h following. Protein that had passed through the nail was recovered from the cotton bud by washing twice with 500 μL of 0.1% v/v trifluoroacetic acid. Recovered protein was quantified using RP-HPLC.

For data set [2], the system named is C. albicans. As to the kind of experiment: Antifungal growth inhibition assay in 96 well microtitre plates (A595). Type of data set: cell-based, Candida albicans. As for the experimental part: (§1) The inhibitory effects of the plant defensins on the growth of Trichophyton rubrum, T. interdigitale, Microsporum fulvum and C. albicans (obtained from the National Mycology Reference Centre, South Australia Pathology at the Women's and Children's Hospital, Adelaide, Australia) are measured essentially as described by Broekaert et al. (1990) FEMS Microbiol Lett 69:55-59. Spores of T. rubrum, T. interdigitale and M. fulvum are isolated from sporulating fungus growing on 1⁄2 strength Sabouraud dextrose agar (SDA). Spores were removed from the plates by the addition of 1⁄2 strength potato dextrose broth (PDB). C. albicans cells are grown in Yeast Peptone Broth (YPD) for 16 h. Spore and cell concentrations are measured using a hemocytometer. Antifungal assays are conducted in 96 well microtitre plates essentially as herein described. Wells are loaded with 20 μm L of filter sterilized (0.22 μm syringe filter, Millipore) defensin (10× stock for each final concentration) or water and 80 μm L of 5×10^4 spores/mL (T. rubrum, T. interdigitale, M. fulvum) or 5,000 cells/mL (C. albicans) in 1⁄2 strength PDB. The plates are incubated at 30° C. Fungal growth is assayed by measuring optical density at 595 nm ([…]) using a microtitre plate reader (SpectraMax Pro M2; Molecular Devices. Growth is allowed to proceed until the optical density (OD) of the fungus in the absence of any test defensin reached an OD of 0.2. Each test is performed in duplicate.

Data set [3] has as its system Human monocytic lymphoma (U937) cells. The data set is classed as cell-based. As to the method:
Human monocytic lymphoma (U937) cells are cultured in RPMI-1640 medium. All culture media are supplemented with 5-10% v/v fetal calf serum, 100 U/ml of penicillin, and 100 μg/ml of streptomycin. Cell lines are cultured at 37° C. in a humidified atmosphere containing 5% v/v CO2. Adherent cell lines are detached from the flask by adding a mixture containing 0.25% v/v trypsin and […] EDTA. A flow cytometry-based propidium iodide (PI) uptake assay is performed to analyze the ability of plant defensins to permeabilize U937 cells (essentially as described in Poon et al, 2014). Briefly, cells are suspended to 1×10^6 cells/ml in 0.1% v/v BSA/RPMI-1640 and incubated with plant defensins (10 μM) at 37° C. for 30 min Samples are added to PBS containing a final concentration of 1 μg/ml PI and placed on ice. Samples are then analyzed immediately using the BD FACSCanto II Flow Cytometer and BD FACSDiva software v6.1.1. The resultant flow cytometry data is analyzed using FlowJo software v8.8.6. Cells are gated appropriately based on forward scatter and side scatter and cell permeabilization is defined by PI-positive staining.

The test system of data set [4] is Microsporum fulvum. As to the kind of experiment: Antifungal growth inhibition assay in 96 well microtitre plates (A595). The data set is classed as cell-based. As to the method:
as §1

Data set [5] deals with Trichophyton rubrum. The data set is described as above. The data set is classed as cell-based. As to the method: as §1
The subject of data set [6] is Trichophyton rubrum, T. interdigitale, Microsporum fulvum and C. albicans. The experiment in a line: Inhibition assays, summary across the range of fungal pathogens. Type of data set: cell-based. Particulars: summary of Table 3. As to the method: as §1
The test system of data set [7] is T. interdigitale. The experiment in a line: Antifungal growth inhibition assay in 96 well microtitre plates (A595). The data set is classed as cell-based, Trichophyton interdigitale. As to the method: as §1
Where [8] appears, read: Day 3, 10 uL of 10% solution, 0.8 cm^2, daily application.
[9] abbreviates: Day 6, 10 uL of 10% solution, 0.8 cm^2, daily application.
Where [10] appears, read: Day 9, 10 uL of 10% solution, 0.8 cm^2, daily application.
The mark [11] stands for this setting: Day 12, 10 uL of 10% solution, 0.8 cm^2, daily application.
Where [12] appears, read: Day 15, 10 uL of 10% solution, 0.8 cm^2, daily application.

Some results are limits rather than exact numbers.

As for `Cc1cc(C2CCCCC2)n(O)c(=O)c1` [Ciclopirox, ciclopirox], the “Cumulative amount through nail” value in data set [1] (human, 3 day, 10 %) was 1 µg; in data set [1] (human, 6 day, 10 %), 2 µg; in data set [1] (human, 9 day, 10 %), 4 µg; in data set [1] (human, 12 day, 10 %), 6 µg; in data set [1] (human, 15 day, 10 %), 9 µg. Also, the “Cumulative amount through nail, percent (line without head; fits percent of cumulative applied dose)” value was 0.03% in data set [1] (human, 3 day, 10 %); 0.03% in data set [1] (human, 6 day, 10 %); 0.04% in data set [1] (human, 9 day, 10 %); 0.05% in data set [1] (human, 12 day, 10 %); 0.06% in data set [1] (human, 15 day, 10 %).
Regarding `C=C1CCN([C@H](C)[C@](O)(Cn2cncn2)c2ccc(F)cc2F)CC1` [Efinaconazole, efinaconazole], the “Cumulative amount through nail” value came to 0.4 µg in data set [1] (human, 1 day, 10 %); 0.7 µg in data set [1] (human, 2 day, 10 %); 1.3 µg in data set [1] (human, 3 day, 10 %); 1.6 µg in data set [1] (human, 4 day, 10 %); 2.6 µg in data set [1] (human, 6 day, 10 %); 4.0 µg in data set [1] (human, 9 day, 10 %). The “Cumulative amount through nail” value is 5.4 µg in data set [1] (human, 12 day, 10 %) and 6.5 µg in data set [1] (human, 15 day, 10 %). Besides, the “Cumulative amount through nail, percent (line without head; fits percent of applied dose)” value in data set [1] (human, 1 day, 10 %) is given as 0.2%; in data set [1] (human, 2 day, 10 %), 0.4%; in data set [1] (human, 3 day, 10 %) it was 0.7%; in data set [1] (human, 4 day, 10 %), 0.8%; in data set [1] (human, 6 day, 10 %), 1.3%; in data set [1] (human, 9 day, 10 %) it was 2.0%. Besides, the “Cumulative amount through nail, percent (line without head; fits percent of applied dose)” value in data set [1] (human, 12 day, 10 %) was 2.7%; in data set [1] (human, 15 day, 10 %), 3.3%.
With `OB1OCc2cc(F)ccc21` [Tavaborole, tavaborole], the “Cumulative amount through nail” value in data set [1] (setting [8]) amounted to 60 µg; in data set [1] (setting [9]), 220 µg; in data set [1] (setting [10]) it was 610 µg; in data set [1] (setting [11]), 1280 µg; in data set [1] (setting [12]) it was 2240 µg. Besides, the “Cumulative amount through nail, percent (line without head; fits percent of cumulative applied dose)” value in data set [1] (setting [8]) was 2.0%; in data set [1] (setting [9]) it was 3.7%; in data set [1] (setting [10]) it was 6.8%; in data set [1] (setting [11]), 10.7%; in data set [1] (setting [12]), 14.9%.
As to “HXL001: Class I plant defensin from Zea mays, SEQ ID NO:4 (RHCLSQSHRFKGLCMSSNNCANVCQTENFPGGECKAEGATRKCFCKKIC; HXL001 Zea mays)”, the “IC50 against C. albicans” value in data set [2] was 35 µg/mL. The “Cells permeabilized (PI-positive)” value in data set [3] is “less than 2%”. Besides, the “IC50 against M. fulvum” value in data set [4] is >100 µg/mL. In addition, the “IC50 against T. rubrum” value in data set [5] is >100 µg/mL. In data set [6], the “Antifungal activity across the range of fungal pathogens” value (“Antifungal activity across the range” for short) is listed as “did not display any activity at the concentrations tested”.
As to “HXL002: Class I plant defensin from Triticum aestivum, SEQ ID NO:5 (RDCLSQSHKFKGACLSSSNCAAVCRTENFPDGECHTHNFARKCFCKRAC; HXL002 Triticum aestivum)”, in data set [2], the “IC50 against C. albicans” value came out at 35 µg/mL and the “Inhibition of C. albicans” value is reported as “very poor inhibitors”. Besides, the “Cells permeabilized (PI-positive)” value in data set [3] is on record as “less than 2%”. Also, in data set [4], the “IC50 against M. fulvum” value was found to be 50 µg/mL and the “Inhibition of M. fulvum” value was “very poor inhibitors”.
As to “HXL003: Class I plant defensin from Triticum aestivum, SEQ ID NO:6 (ARDCTSQSHKFVGLCLSDRNCASVCLTEYFTGGKCDHRRCVCTKGC; HXL003 Triticum aestivum)”, the “IC50 against C. albicans” value in data set [2] was >100 µg/mL. Besides, in data set [4], the “IC50 against M. fulvum” value is >100 µg/mL.
For “HXL005: Class I plant defensin from Taraxcum kok-saghyz, SEQ ID NO:8 (Table 1) (KMCQTTSHAFSCVNDSGCSGSCEKQGFASGKCDGVRRRCTCYKKC; HXL005 Taraxcum kok-saghyz)”, the “IC50 against T. interdigitale” value in data set [7] was 3.5 µg/mL. Further, in data set [2], the “IC50 against C. albicans” value is 22 µg/mL. In addition, in data set [3], the “Cells permeabilized (PI-positive)” value is listed as ~25%. Further, the “IC50 against M. fulvum” value in data set [4] is 5 µg/mL. Further, the “IC50 against T. rubrum” value in data set [5] turned out to be 3 µg/mL. For the same molecule, the “Antifungal activity across the range” value in data set [6] is reported as “the most effective plant defensins across the range of fungal pathogens”.
On to “HXL009: Class I plant defensin from Zea mays, SEQ ID NO:9 (Table 1) (TVCMRHNNFYHGPCMSNKDCANSCVQHNLGVGGYCRGKIPFNKECMCTFEC; HXL009 Zea mays)”, for which, in data set [2], the “IC50 against C. albicans” value was >100 µg/mL. For the same molecule, the “Cells permeabilized (PI-positive)” value in data set [3] was “less than 2%”. Further, the “IC50 against M. fulvum” value in data set [4] is >100 µg/mL. For the same molecule, the “Antifungal activity across the range” value in data set [6] was “did not display any activity at the concentrations tested”.
Consider “HXL013: Class I plant defensin from Glycine max, SEQ ID NO:11 (KDCLTRRHGFQGRCLFDRQCAHVCRSDGFIGGQCRGPLRKCFCSRPC; HXL013 Glycine max)”, for which, in data set [2], the “IC50 against C. albicans” value worked out at 20 µg/mL. Also, the “Cells permeabilized (PI-positive)” value in data set [3] is listed as 5%. For the same molecule, the “IC50 against M. fulvum” value in data set [4] amounted to 5.5 µg/mL. Also, the “IC50 against T. rubrum” value in data set [5] amounted to 22 µg/mL. Also, in data set [6], the “Antifungal activity across the range” value is listed as “intermediate activity”.
In the case of “HXL015: Class I plant defensin from Oryza sativa, SEQ ID NO:12 (RHCLSQSHRFKGMCVSSNNCANVCRTESFPDGECKSHGLERKCFCKKVC; HXL015 Oryza sativa)”, in data set [7], the “IC50 against T. interdigitale” value was found to be 3.5 µg/mL. Besides, the “IC50 against M. fulvum” value in data set [4] stood at 12.5 µg/mL. Besides, the “IC50 against T. rubrum” value in data set [5] amounted to 10 µg/mL. The “Antifungal activity across the range” value in data set [6] was “intermediate activity”.
Take “HXL035: Class I plant defensin from Picramnia pentandra, SEQ ID NO:2 (KVCTKPSKFFKGLCGFDRDCTVACKKEGLASGFCQNKGFFNVVCVCRKPC; HXL035 Picramnia pentandra)”: the “IC50 against T. interdigitale” value in data set [7] was 1 µg/mL. In addition, the “IC50 against C. albicans” value in data set [2] was determined as 18 µg/mL. The “IC50 against M. fulvum” value in data set [4] is 2 µg/mL. The “IC50 against T. rubrum” value in data set [5] came to 2 µg/mL. For the same molecule, in data set [6], the “Antifungal activity across the range” value is “the most effective plant defensins across the range of fungal pathogens”.
Take “HXP4: Artificial defensin variant, Loop1B from a Class I defensin replaces that of a Solanaceous Class II defensin, SEQ ID NO:21 (RECKTESHRFKGPCITKPPCRKACISEKFTDGHCSKILRRCLCTKPC; HXP4)”: the “Cells permeabilized (PI-positive)” value in data set [3] was found to be 13%.

(Values after patent US10010576B2, “Method of treatment” (Hexima Limited, priority 2014, dated 2018).)
